Test results reported in patent publication US4539429A, “Substituted aminophenylalkyl ketones, their preparation and use” (Sterling Drug Inc., priority 1983, dated 1985).
Read-outs that look alike come from different tables or passages of the source.

How the values were obtained:
[1] = biological target: T1, lipoxygenase (Rattus norvegicus, UniProt P12527); test: Inhibition of lipoxygenase from rat basophilic leukemia (RBL-1) cells (formation of L1 5,12-di-HETE and L2 5-HETE); type: biochemical
T1 construct: Single cell suspensions of RBL-1 cells are homogenized to obtain the microsomal fraction containing lipoxygenase and cyclooxygenase; endogenous in cells; host or cells: RBL-1 (rat basophilic leukemia) cells
T1 sequence (P12527 1-673): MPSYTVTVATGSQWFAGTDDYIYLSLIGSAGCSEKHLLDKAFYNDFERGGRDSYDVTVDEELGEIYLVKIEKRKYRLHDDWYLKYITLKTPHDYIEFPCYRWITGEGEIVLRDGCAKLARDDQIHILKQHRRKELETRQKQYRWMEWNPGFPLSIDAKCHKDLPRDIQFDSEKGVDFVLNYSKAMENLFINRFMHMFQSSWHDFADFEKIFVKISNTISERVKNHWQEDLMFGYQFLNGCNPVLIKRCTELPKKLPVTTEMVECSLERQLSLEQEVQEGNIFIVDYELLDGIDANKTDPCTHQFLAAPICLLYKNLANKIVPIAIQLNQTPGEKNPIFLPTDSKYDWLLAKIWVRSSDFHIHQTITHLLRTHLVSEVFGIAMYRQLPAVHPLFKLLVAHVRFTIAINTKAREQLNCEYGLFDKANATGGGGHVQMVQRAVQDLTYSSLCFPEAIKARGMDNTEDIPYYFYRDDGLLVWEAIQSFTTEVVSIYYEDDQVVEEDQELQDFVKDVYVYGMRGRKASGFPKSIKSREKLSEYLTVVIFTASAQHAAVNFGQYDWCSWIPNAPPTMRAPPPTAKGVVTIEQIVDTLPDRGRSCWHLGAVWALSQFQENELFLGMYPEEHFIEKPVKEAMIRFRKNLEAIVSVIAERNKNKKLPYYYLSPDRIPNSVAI
Method: (§1) The primary screening test used is a determination of the inhibition of lipoxygenase and cyclooxygenase derived from rat basophilic leukemia (RBL-1) cells. The test was carried out according to the following procedure:
(§2) Single cell suspensions of RBL-1 cells are homogenized to obtain the microsomal fraction containing lipoxygenase and cyclooxygenase. Test compounds are added to the enzyme-containing homogenate for a 5 min preincubation period at 37° C. prior to the additon of ^14 C-arachidonic acid substrate. Following incubation at 37° C. for 15 min, the reaction is stopped by the addition of 2M formic acid and the enzyme-substrate products are extracted into chloroform. An aliquot of the extract is evaporated to dryness, reconstituted in ether to 1/10 original volume, spotted on thin layer chromatography plates and chromatographed. The peak areas of radioactivity representing the products are located by scanning the plates. The quantity of products formed is estimated by measuring the height of the radioactivity peaks observed on the chromatographic scans. Alternatively, the areas of radioactivity are scraped from the plate and the ^14 C quantitated by scintillation counting.

[2] = system: SRS-A component of immunologically induced bronchoconstriction; test: Effect on the SRS-A component of immunologically induced bronchoconstriction in guinea pigs; type: in vivo, guinea pig
Method: The test was carried out according to the following procedure:
Two weeks after immunization with egg albumin, guinea pigs are prepared for bronchoconstriction determination. One hour prior to antigen challenge, each animal is dosed orally with indomethacin and chlorpheniramine. Animals are anesthetized with sodium pentobarbital, the trachea cannulated and the animal artifically respired. Arachidonic acid is administered intravenously prior to antigen challenge. The resulting bronchoconstriction is recorded by the standard lung overflow procedure and the peak increase in intratracheal pressure (mm Hg) over a 10 minute observation period is recorded. Compounds are evaluated for their ability to prevent the increased intratracheal pressure in an experimental group of animals as compared to the medicated (indomethacin+chlorpheniramine+arachidonic acid) control group. The results are expressed in terms of percent inhibition or as ED50 values (effective dose in 50% of the animals).

[3] = biological target: T2, cyclooxygenase (Rattus norvegicus, UniProt Q63921); test: Inhibition of cyclooxygenase from rat basophilic leukemia (RBL-1) cells (formation of PGD2, C1); type: biochemical; settings: cyclooxygenase product PGD2 (C1); for inhibition at 1 µM: read-out: % Inhibition of cyclooxygenase (Cl) formation
T2 construct: Single cell suspensions of RBL-1 cells are homogenized to obtain the microsomal fraction containing lipoxygenase and cyclooxygenase; endogenous in cells; host or cells: RBL-1 (rat basophilic leukemia) cells
T2 sequence (Q63921 27-602): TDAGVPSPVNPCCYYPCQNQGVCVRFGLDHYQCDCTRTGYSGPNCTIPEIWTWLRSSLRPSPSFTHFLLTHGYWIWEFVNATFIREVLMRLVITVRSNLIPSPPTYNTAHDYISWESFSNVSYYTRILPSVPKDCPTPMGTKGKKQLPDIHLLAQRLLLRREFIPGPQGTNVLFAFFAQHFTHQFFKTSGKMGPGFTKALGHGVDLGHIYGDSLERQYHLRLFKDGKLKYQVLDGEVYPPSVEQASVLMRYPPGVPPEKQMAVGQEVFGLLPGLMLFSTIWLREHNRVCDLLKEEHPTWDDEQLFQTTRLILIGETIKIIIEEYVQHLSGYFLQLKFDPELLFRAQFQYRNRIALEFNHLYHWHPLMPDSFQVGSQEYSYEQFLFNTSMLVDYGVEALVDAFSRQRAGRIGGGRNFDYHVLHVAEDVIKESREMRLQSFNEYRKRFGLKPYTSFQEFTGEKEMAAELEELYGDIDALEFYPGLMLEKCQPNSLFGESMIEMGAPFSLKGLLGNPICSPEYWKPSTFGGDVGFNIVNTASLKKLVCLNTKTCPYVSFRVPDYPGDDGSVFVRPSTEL
Method: as §1, §2

Row | SMILES | IC50 [1] [nM] | inhibition at 1 µM ([1]; read-out: % Inhibition of lipoxygenase (L1) formation) [%] | inhibition at 1 µM ([1]; read-out: % Inhibition of lipoxygenase (L2) formation) [%] | ED50 ([2]; Cavia porcellus, iv, indomethacin + chlorpheniramine pretreated, arachidonic acid i.v. before antigen challenge, read-out: In vivo Guinea Pig ED50) [mg/kg] | In vivo Guinea Pig % inhib. ([2]; at 1 mg/kg orally, increased intratracheal pressure vs medicated control group) [%] | inhibition at 1 µM [3] [%] | IC50 [3] [nM] | inhibition at 1 µM ([1]; 1 μM, L1 = 5,12-di-HETE, read-out: % Inhibition of lipoxygenase (L1) formation) [%] | inhibition at 1 µM ([1]; 1 μM, L2 = 5-HETE, read-out: % Inhibition of lipoxygenase (L2) formation) [%]
1 | COc1ccc(Nc2ccc(O)cc2)c(C(C)=O)c1 [Example 1c, 1-[2-(4-Hydroxyphenylamino)-5-methoxyphenyl]ethanone] | 70 | 88 | 88 | 2.7 | 52 | 36 | > 1000 | – | –
2 | CC(=O)c1ccccc1Nc1ccc(O)cc1 [Example 2c, 1-[2-(4-Hydroxyphenylamino)phenyl]ethanone] | – | – | – | – | – | 9 | – | 61 | 72
